Data taken from patent publication US10030020B2, “Spirocycle compounds and methods of making and using same” (Abide Therapeutics, Inc., priority 2016, dated 2018).
pIC50: −log10 of the molar value. Read-outs that look alike come from different tables or passages of the source.

What was measured:
MAGL [1] = target: T1, MAGL (Mus musculus (Mouse), UniProt O35678); assay: Mouse brain proteomes from inhibitor treated mice (oral gavage, sacrificed 4 h after administration, ABPP analysis); assay type: in vivo, mouse (C57Bl/6J); details: 5 mg/kg oral gavage
T1 sequence (O35678 whole entry): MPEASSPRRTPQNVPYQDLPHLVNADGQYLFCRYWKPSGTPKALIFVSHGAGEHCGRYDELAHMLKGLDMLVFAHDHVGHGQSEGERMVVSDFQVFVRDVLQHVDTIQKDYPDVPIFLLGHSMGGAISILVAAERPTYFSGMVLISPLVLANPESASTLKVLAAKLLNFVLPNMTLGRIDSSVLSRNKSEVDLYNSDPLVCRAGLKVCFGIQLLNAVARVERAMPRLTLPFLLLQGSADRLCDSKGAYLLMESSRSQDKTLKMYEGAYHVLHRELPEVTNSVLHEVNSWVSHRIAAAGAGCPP
Outline: (§1)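 Read-out is % inhibition at 5 mg/kg in brain proteomes profiled by activity-based protein profiling. Inhibitors were dosed orally to wild-type C57Bl/6J mice, with sacrifice at 4 h.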

ABHD6 [2] = target: T2, ABHD6 (Mus musculus (Mouse), UniProt Q8R2Y0); assay: Mouse brain proteomes from inhibitor treated mice (oral gavage, sacrificed 4 h after administration, ABPP analysis), ABHD6; assay type: in vivo, mouse (C57Bl/6J); details: 5 mg/kg oral gavage
T2 sequence (Q8R2Y0 whole entry): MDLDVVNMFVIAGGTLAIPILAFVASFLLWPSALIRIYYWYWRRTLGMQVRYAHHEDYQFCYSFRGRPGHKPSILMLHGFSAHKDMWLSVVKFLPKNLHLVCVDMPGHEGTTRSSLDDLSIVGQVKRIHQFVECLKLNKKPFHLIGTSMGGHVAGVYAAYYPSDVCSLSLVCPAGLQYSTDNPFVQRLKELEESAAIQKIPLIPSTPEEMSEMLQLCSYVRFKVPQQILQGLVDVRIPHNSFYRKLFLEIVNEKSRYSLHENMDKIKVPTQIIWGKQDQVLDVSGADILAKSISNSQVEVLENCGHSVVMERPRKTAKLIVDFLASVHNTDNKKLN
Outline: as §1

FAAH [3] = target: T3, FAAH (Mus musculus (Mouse), UniProt O08914); assay: Mouse brain proteomes from inhibitor treated mice (oral gavage, sacrificed 4 h after administration, ABPP analysis), FAAH; assay type: in vivo, mouse (C57Bl/6J); details: 5 mg/kg oral gavage
T3 sequence (O08914 whole entry): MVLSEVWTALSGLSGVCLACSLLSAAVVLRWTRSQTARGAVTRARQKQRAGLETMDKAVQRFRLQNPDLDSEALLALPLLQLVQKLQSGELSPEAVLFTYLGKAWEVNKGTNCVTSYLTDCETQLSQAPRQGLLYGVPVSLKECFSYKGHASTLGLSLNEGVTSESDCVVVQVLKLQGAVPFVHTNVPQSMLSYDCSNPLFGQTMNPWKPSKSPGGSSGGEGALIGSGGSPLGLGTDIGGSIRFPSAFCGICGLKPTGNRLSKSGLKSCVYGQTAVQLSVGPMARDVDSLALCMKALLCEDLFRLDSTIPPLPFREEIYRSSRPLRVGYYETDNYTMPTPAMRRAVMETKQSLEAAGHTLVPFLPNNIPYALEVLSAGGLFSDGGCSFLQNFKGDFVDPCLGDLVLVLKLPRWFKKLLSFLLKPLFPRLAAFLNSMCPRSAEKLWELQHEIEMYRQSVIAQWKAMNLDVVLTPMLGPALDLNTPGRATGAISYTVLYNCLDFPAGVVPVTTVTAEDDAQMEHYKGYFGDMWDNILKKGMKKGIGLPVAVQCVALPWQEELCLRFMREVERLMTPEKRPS
Outline: as §1

MAGL [4] = target: T1, MAGL; assay: In vitro competitive activity-based protein profiling (mouse brain membrane fraction or cell lysates), MAGL band; assay type: biochemical; details: for inhibition at 1 µM: read-out: MAGL % Inh 1 μM (mouse); for pIC50: competitive ABPP
Protocol: In Vitro Competitive Activity-Based Protein Profiling.
Proteomes (mouse brain membrane fraction or cell lysates) (50 μL, 1.0 mg/mL total protein concentration) were preincubated with varying concentrations of inhibitors at 37° C. After 30 min, FP—Rh (1.0 μL, 50 μM in DMSO) was added and the mixture was incubated for another 30 min at 37° C. Reactions were quenched with SDS loading buffer (50 μL-4×) and run on SDS-PAGE.

ABHD6 [5] = target: T2, ABHD6; assay: In vitro competitive activity-based protein profiling (mouse brain membrane fraction or cell lysates), ABHD6 band; assay type: biochemical; details: for inhibition at 1 µM: read-out: ABHD6 % Inh 1 μM (mouse); for pIC50: competitive ABPP
Outline: (§2)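 Mouse proteome samples (brain membrane fraction or cell lysate, 1.0 mg/mL protein) were pretreated with varying inhibitor concentrations and subsequently probed with fluorophosphonate-rhodamine, each step lasting 30 min at 37° C. Labelled proteins were separated by SDS-PAGE, and band fluorescence was imaged and quantified.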

FAAH [6] = target: T3, FAAH; assay: In vitro competitive activity-based protein profiling (mouse brain membrane fraction or cell lysates), FAAH band; assay type: biochemical; details: for inhibition at 1 µM: read-out: FAAH % Inh 1 μM (mouse); for pIC50: competitive ABPP
Outline: as §2

MAGL [7] = target: MAGL (Homo sapiens (Human), UniProt Q99685); assay: In vitro competitive activity-based protein profiling (human prefrontal cortex or cell membrane fractions; hMAGL expressed in HEK293T cells); assay type: biochemical
MAGL (Homo sapiens (Human), UniProt Q99685), sequence (Q99685 whole entry): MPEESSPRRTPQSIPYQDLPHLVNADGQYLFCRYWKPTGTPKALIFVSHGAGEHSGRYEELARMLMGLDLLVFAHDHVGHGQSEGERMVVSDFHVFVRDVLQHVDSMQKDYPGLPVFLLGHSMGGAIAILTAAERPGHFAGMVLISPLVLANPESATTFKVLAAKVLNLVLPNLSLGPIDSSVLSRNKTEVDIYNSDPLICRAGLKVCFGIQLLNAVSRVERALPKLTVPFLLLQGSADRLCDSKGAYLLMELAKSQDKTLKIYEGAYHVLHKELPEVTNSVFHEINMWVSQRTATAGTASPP
Outline: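 Human prefrontal cortex or cell membrane proteomes (1.0-2.0 mg/mL), or lysates of HEK293T cells expressing hMAGL diluted into mock proteome, preincubated with inhibitor 30 min at 37° C. FP-Rh or JW912 probe then added for 30 min at room temperature. Residual labeling resolved by SDS-PAGE.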

[8] = human proteome, competitive ABPP

MAGL % Inh 5 mg/kg (mouse) (MAGL [1]) | ABHD6 % Inh 5 mg/kg (mouse) (ABHD6 [2]) | FAAH % Inh 5 mg/kg (mouse) (FAAH [3]) | inhibition at 1 µM (MAGL [4]; mouse) [%] | inhibition at 1 µM (ABHD6 [5]; mouse) [%] | inhibition at 1 µM (FAAH [6]; mouse) [%] | pIC50 (MAGL [7]; human) | inhibition at 1 µM (MAGL [4]; mouse proteome) [%] | pIC50 (MAGL [4]; mouse proteome) | inhibition at 1 µM (ABHD6 [5]; mouse proteome) [%] | pIC50 (ABHD6 [5]; mouse proteome) | inhibition at 1 µM (FAAH [6]; mouse proteome) [%] | pIC50 (FAAH [6]; mouse proteome) | pIC50 (MAGL [7]; [8]) | SMILES
# (# is <25%) | # (# is <25%) | # (# is <25%) | > 75 | ≥ 75 | < 25 | > 7.00 |  |  |  |  |  |  |  | CS(=O)(=O)C1CCN(c2cc(C(F)(F)F)ccc2CN2CCCC23CCN(C(=O)OC(C(F)(F)F)C(F)(F)F)CC3)CC1 [Example 267]
# (# is <25%) | # (# is <25%) | # (# is <25%) |  |  |  |  | > 75 | 6.00 to 7.00 | 25 to 75 | < 6.00 | < 25 | < 6.00 | > 7.00 | O=C(O)C1CN(c2cc(C(F)(F)F)ccc2CN2CCCC23CCN(C(=O)OC(C(F)(F)F)C(F)(F)F)CC3)CCO1 (stereo not shown) [Example 197, 4-(2-((8-(((1,1,1,3,3,3-Hexafluoropropan-2-yl)oxy)carbonyl)-1,8-diazaspiro[4.5]decan-1-yl)methyl)-5-(trifluoromethyl)phenyl)morpholine-2-carboxylic acid]
### (### is ≥75%) | # (# is <25%) | # (# is <25%) | > 75 | < 25 | < 25 | > 7.00 |  |  |  |  |  |  |  | CC1(C(=O)O)CCCN(c2cc(CN3CCCC34CCN(C(=O)OC(C(F)(F)F)C(F)(F)F)CC4)cc(C(F)(F)F)c2)C1 (stereo not shown) [Example 221]

SMILES | MAGL % Inh 5 mg/kg (mouse) (MAGL [1]) | ABHD6 % Inh 5 mg/kg (mouse) (ABHD6 [2]) | FAAH % Inh 5 mg/kg (mouse) (FAAH [3]) | inhibition at 1 µM (MAGL [4]; mouse) [%] | inhibition at 1 µM (ABHD6 [5]; mouse) [%] | inhibition at 1 µM (FAAH [6]; mouse) [%] | pIC50 (MAGL [7]; human) | inhibition at 1 µM (MAGL [4]; mouse proteome) [%] | pIC50 (MAGL [4]; mouse proteome) | inhibition at 1 µM (ABHD6 [5]; mouse proteome) [%] | pIC50 (ABHD6 [5]; mouse proteome) | inhibition at 1 µM (FAAH [6]; mouse proteome) [%] | pIC50 (FAAH [6]; mouse proteome) | pIC50 (MAGL [7]; [8])
O=C(O)C1CCN(c2cc(Cl)cc(CN3CCCC34CCN(C(=O)OC(C(F)(F)F)C(F)(F)F)CC4)c2)CC1 [Example 122, 1-(3-Chloro-5-((8-(((1,1,1,3,3,3-hexafluoropropan-2-yl)oxy)carbonyl)-1,8-diazaspiro[4.5]decan-1-yl)methyl)phenyl)piperidine-4-carboxylic acid] | ### (### is ≥75%) | ## (## is equal to or greater than 25% but less than 75%) | ## (## is equal to or greater than 25% but less than 75%) |  |  |  |  | > 75 | > 7.00 | < 25 | < 6.00 | < 25 | < 6.00 | > 7.00
N#Cc1ccc(CN2CCCC23CCN(C(=O)OC(C(F)(F)F)C(F)(F)F)CC3)c(N2CCC(C(=O)O)CC2)c1 [Example 249] | ## (## is equal to or greater than 25% but less than 75%) | # (# is <25%) | # (# is <25%) | > 75 | < 25 | < 25 | > 7.00 |  |  |  |  |  |  | 
O=C(O)C1CCN(Cc2cc(CN3CCCC34CCN(C(=O)OC(C(F)(F)F)C(F)(F)F)CC4)cc(OC(F)(F)F)c2)C1 (stereo not shown) [Example 270] | ## (## is equal to or greater than 25% but less than 75%) | # (# is <25%) | # (# is <25%) | > 75 | < 25 | < 25 | > 7.00 |  |  |  |  |  |  | 
CS(=O)(=O)C1CN(c2cc(C(F)(F)F)ccc2CN2CCCC23CCN(C(=O)OC(C(F)(F)F)C(F)(F)F)CC3)C1 [Example 268] | ## (## is equal to or greater than 25% but less than 75%) | ## (## is equal to or greater than 25% but less than 75%) | # (# is <25%) | > 75 | 25 to 75 | < 25 | > 7.00 |  |  |  |  |  |  | 
